Test results from paper PMC3918950 (Experimental eye research, 2013).

Columns and labels:
MDR1 [1] = target: T1, MDR1 (Homo sapiens, UniProt P08183); assay: in vitro; settings: MDCK-MDR1
MRP2 [2] = target: T2, MRP2 (Homo sapiens, UniProt Q92887); assay: in vitro; settings: dog
IL-8 = assay: Pro-inflammatory cytokines assay, IL-8 release; assay type: cell-based, human; settings: 48 h; for Reduction of IL-8 release in presence of moxifloxacin: moxifloxacin 500 µM
IL-6 = assay: Pro-inflammatory cytokines assay, IL-6 release; assay type: cell-based, human; settings: 48 h; for Reduction of IL-6 release in presence of moxifloxacin: moxifloxacin 500 µM
Y-79 cells = assay: Anti-proliferative activity; assay type: cell-based, human; settings: for IC50: Homo sapiens, Y79, read-out: IC50 against retinoblastoma cells; for Reduction of IC50 value in the presence of moxifloxacin: Y-79, MTT, moxifloxacin 500 µM
MRP2 [3] = target: T2, MRP2; settings: MDCK-MRP2; [14C]-erythromycin 0.25 µCi/mL; 30 min; in presence of MK571 50 µM
MDR1 [4] = target: T1, MDR1
MDR1 [5] = target: T1, MDR1; assay: in vitro; settings: MDCK-MDR1, pH 7.4
MDR1 [6] = target: T1, MDR1; assay: cell-based
caspase-3 [7] = assay: Caspase-3 assay in Y-79 cells; assay type: cell-based, human
MRP2 [8] = target: T2, MRP2; assay: cell-based
in vitro = settings: dog, MDCK, pH 7.4
MRP2 [9] = target: T2, MRP2; assay: Bi-directional transport of moxifloxacin across MDCK-MRP2 cells; assay type: in vitro ADME
MRP2 [10] = target: T2, MRP2; assay: Bidirectional transport of anticancer agents across MDCK-MRP2 cells; settings: moxifloxacin 500 µM
MDR1 [11] = target: T1, MDR1; assay: Bidirectional transport of anticancer agents across MDCK-MDR1 cells; settings: moxifloxacin 500 µM
MRP2 [12] = target: T2, MRP2; assay: Bi-directional transport of [14C]-erythromycin across MDCK-MRP2 cells; assay type: in vitro ADME; settings: pH 7.4
MDR1 [13] = target: T1, MDR1; assay: Bi-directional transport of [14C]-erythromycin across MDCK-MDR1 cells; assay type: in vitro ADME; settings: MDCK-MDR1, pH 7.4
caspase-3 [14] = settings: read-out: Km (caspase-3 substrate); ref Anaspec, San Jose, CA; cited from earlier work
[15] = conclusion from uptake and bi-directional transport

T1 sequence (P08183 whole entry): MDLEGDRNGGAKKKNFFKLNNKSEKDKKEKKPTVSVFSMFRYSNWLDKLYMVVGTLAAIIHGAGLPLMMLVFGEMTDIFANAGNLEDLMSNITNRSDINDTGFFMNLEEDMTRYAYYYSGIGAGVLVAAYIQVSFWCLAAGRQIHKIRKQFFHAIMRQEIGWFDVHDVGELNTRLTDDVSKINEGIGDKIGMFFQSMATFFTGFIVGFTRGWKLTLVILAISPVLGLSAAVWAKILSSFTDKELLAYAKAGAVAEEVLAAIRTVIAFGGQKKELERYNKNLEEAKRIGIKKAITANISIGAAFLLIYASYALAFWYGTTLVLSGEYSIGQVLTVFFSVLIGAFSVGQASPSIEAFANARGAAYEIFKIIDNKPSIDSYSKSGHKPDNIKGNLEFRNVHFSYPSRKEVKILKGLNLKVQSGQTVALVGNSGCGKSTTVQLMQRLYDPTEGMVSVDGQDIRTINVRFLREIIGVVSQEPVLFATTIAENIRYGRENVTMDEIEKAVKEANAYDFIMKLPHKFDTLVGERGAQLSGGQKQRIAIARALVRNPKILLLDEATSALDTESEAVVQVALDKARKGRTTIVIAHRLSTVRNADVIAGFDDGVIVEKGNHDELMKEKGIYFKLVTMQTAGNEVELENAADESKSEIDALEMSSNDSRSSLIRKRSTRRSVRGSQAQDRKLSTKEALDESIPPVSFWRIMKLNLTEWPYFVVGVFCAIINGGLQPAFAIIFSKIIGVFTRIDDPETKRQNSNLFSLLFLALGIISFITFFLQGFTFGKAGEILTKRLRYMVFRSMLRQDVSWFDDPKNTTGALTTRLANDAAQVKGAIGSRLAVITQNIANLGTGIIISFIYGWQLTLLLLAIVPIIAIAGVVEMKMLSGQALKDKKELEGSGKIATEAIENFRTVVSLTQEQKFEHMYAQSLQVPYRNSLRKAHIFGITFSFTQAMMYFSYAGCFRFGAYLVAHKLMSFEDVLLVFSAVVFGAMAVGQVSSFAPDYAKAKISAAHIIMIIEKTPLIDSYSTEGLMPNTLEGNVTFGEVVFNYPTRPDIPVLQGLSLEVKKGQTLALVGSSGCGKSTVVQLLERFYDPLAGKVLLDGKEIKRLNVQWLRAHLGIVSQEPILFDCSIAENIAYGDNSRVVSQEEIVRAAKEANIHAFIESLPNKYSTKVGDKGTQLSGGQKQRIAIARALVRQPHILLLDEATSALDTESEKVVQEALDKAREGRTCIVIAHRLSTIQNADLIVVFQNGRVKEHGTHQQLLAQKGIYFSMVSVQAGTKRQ
T2 sequence (Q92887 whole entry): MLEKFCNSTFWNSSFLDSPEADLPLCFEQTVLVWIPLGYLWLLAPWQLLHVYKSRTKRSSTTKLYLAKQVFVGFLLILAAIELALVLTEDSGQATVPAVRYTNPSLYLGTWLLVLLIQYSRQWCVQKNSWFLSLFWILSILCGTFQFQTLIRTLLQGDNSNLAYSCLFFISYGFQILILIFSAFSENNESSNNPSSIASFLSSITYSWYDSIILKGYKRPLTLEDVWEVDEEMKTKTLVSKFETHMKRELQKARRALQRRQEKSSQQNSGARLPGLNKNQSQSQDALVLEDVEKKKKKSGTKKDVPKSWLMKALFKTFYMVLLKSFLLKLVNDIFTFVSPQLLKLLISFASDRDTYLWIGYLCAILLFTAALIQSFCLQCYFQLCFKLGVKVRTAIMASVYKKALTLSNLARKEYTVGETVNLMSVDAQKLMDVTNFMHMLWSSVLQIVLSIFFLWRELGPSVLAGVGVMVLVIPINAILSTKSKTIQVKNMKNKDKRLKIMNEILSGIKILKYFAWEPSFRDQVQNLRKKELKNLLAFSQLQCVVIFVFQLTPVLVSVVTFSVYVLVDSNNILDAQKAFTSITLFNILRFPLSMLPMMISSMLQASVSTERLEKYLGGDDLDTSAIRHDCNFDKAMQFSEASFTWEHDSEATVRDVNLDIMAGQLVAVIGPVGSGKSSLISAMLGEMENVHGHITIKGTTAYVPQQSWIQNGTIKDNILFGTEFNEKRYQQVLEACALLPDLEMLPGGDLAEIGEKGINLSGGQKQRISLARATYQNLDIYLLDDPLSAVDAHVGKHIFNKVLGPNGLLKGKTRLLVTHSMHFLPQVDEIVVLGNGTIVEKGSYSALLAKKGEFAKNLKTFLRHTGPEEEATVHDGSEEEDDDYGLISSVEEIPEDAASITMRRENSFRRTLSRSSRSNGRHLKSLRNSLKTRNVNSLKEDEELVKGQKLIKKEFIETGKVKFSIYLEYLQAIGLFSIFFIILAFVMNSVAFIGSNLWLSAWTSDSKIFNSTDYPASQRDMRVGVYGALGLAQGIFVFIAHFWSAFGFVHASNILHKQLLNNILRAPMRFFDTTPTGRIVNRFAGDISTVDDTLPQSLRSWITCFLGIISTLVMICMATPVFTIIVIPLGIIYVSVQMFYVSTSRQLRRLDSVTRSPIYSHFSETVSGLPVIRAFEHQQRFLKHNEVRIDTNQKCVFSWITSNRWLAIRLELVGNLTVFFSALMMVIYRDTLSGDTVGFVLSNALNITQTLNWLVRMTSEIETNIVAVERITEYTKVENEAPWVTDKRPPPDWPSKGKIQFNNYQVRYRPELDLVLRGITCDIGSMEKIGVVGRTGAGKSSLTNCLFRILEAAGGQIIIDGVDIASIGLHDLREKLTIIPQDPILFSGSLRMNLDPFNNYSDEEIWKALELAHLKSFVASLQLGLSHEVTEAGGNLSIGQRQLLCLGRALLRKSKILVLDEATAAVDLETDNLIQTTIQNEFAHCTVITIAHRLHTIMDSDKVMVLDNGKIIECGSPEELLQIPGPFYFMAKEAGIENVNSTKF

Compound	Papp A→B at 0.5 µCi/mL (MDR1 [1]) [×10⁻⁶ cm/s]	Papp B→A at 0.5 µCi/mL (MDR1 [1]) [×10⁻⁶ cm/s]	Papp A→B at 0.5 µCi/mL (MRP2 [2]) [×10⁻⁶ cm/s]	Papp B→A at 0.5 µCi/mL (MRP2 [2]) [×10⁻⁶ cm/s]	Release of IL-8 (IL-8; anticancer agent 0.5 µg alone) [pg/mL]	Reduction of IL-8 release in presence of moxifloxacin (IL-8; anticancer agent 0.5 µg) [fold]	Release of IL-8 (IL-8; anticancer agent 1.0 µg alone) [pg/mL]	Reduction of IL-8 release in presence of moxifloxacin (IL-8; anticancer agent 1.0 µg) [fold]	Release of IL-6 (IL-6; anticancer agent 0.5 µg alone) [pg/mL]	Reduction of IL-6 release in presence of moxifloxacin (IL-6; anticancer agent 0.5 µg) [fold]	Release of IL-6 (IL-6; anticancer agent 1.0 µg alone) [pg/mL]	Reduction of IL-6 release in presence of moxifloxacin (IL-6; anticancer agent 1.0 µg) [fold]	IC50 (Y-79 cells) [µM]	Reduction of IC50 value in the presence of moxifloxacin (Y-79 cells) [fold]	further results
COc1cc([C@@H]2c3cc4c(cc3[C@@H](O[C@@H]3O[C@@H]5CO[C@@H](C)O[C@H]5[C@H](O)[C@H]3O)[C@H]3COC(=O)[C@H]23)OCO4)cc(OC)c1O [Etoposide]	3.57 ± 0.65	11.6 ± 1.78	37.8 ± 2.7	207 ± 17.4	191.90 ± 9.10	1.60	286.60 ± 16.60	1.28	105.20 ± 3.90	1.3	151.40 ± 10.00	1.4	27.1	13	
CN(C)C(=O)CCSC(SCCC(=O)O)c1cccc(/C=C/c2ccc3ccc(Cl)cc3n2)c1 (centres unmarked) [MK571]															Cellular accumulation of [14C]-erythromycin relative to control (MRP2 [3]): 273%
COc1c(N2C[C@@H]3CCCN[C@@H]3C2)c(F)cc2c(=O)c(C(=O)O)cn(C3CC3)c12 [Moxifloxacin]															Increase of AP-BL permeability of moxifloxacin (MDR1 [4]; MDCK-MDR1, in presence of GF120918): 2.80 times; Substrate of MDR1 efflux transporter (MDR1 [4]; [15]): substrate; Papp A→B at 500 µM (MDR1 [5]): 5.81 ± 0.44 ×10⁻⁶ cm/s; Papp B→A at 500 µM (MDR1 [5]): 20.5 ± 2.26 ×10⁻⁶ cm/s; IC50 (MDR1 [6]): 217 µM; Caspase-3 activity, moxifloxacin alone (caspase-3 [7]): slightly elevated; IC50 (MRP2 [8]): 187 µM; Papp A→B at 500 µM (in vitro): 5.7 ± 0.04 ×10⁻⁶ cm/s; Papp B→A at 500 µM (in vitro): 7.4 ± 0.14 ×10⁻⁶ cm/s; Increase of AP-BL permeability of moxifloxacin (MRP2 [9]; MDCK-MRP2, in presence of MK571): 2.10 times; Substrate of MRP2 efflux transporter (MRP2 [9]; [15]): substrate; Papp A→B at 500 µM (MRP2 [9]; human, pH 7.4): 0.78 ± 0.13 ×10⁻⁶ cm/s; Papp B→A at 500 µM (MRP2 [9]; human, pH 7.4): 1.97 ± 0.41 ×10⁻⁶ cm/s
CC[C@@]1(O)C(=O)OCc2c1cc1n(c2=O)Cc2cc3c(CN(C)C)c(O)ccc3nc2-1 [Topotecan]	0.75 ± 0.03	3.5 ± 0.28	8.06 ± 0.66	24.8 ± 2.44	157.70 ± 12.60	1.48	239.20 ± 13.90	1.30	156.90 ± 2.70	1.3	157.50 ± 8.80	1.2	27.9	10	efflux ratio at 0.5 µCi/mL (MDR1 [1]): 4.63; Elevation of AP-BL permeability by moxifloxacin (MRP2 [10]): 1.57 fold; efflux ratio at 0.5 µCi/mL (MRP2 [2]): 3.07; Elevation of AP-BL permeability by moxifloxacin (MDR1 [11]): 2.08 fold
CC[C@]1(O)C[C@@H]2CN(CCc3c([nH]c4ccccc34)[C@@](C(=O)OC)(c3cc4c(cc3OC)N(C)[C@H]3[C@@](O)(C(=O)OC)[C@H](OC(C)=O)[C@]5(CC)C=CCN6CC[C@]43[C@@H]65)C2)C1 [Vinblastine]	1.55 ± 0.03	10.2 ± 0.47	13.5 ± 3.24	73.8 ± 8.16	140.20 ± 14.40	1.40	284.90 ± 18.00	1.08	52.90 ± 4.30	1.11	73.60 ± 2.30	1.42	0.0519	2	Elevation of AP-BL permeability by moxifloxacin (MDR1 [11]): 2.55 fold
CC[C@H]1OC(=O)[C@H](C)[C@@H](O[C@H]2C[C@@](C)(OC)[C@@H](O)[C@H](C)O2)[C@H](C)[C@@H](O[C@@H]2O[C@H](C)C[C@H](N(C)C)[C@H]2O)[C@](C)(O)C[C@@H](C)C(=O)[C@H](C)[C@@H](O)[C@]1(C)O [[^14C]-erythromycin, Erythromycin]															Papp B→A at 3 h, 0.5 µCi/mL (MRP2 [12]): 2.7 ± 0.18 ×10⁻⁶ cm/s; Papp A→B at 3 h, 0.5 µCi/mL (MDR1 [13]): 5.44 ± 0.52 ×10⁻⁶ cm/s; Papp B→A at 3 h, 0.5 µCi/mL (MDR1 [13]): 18.8 ± 1.05 ×10⁻⁶ cm/s
Ac-DEVD-AMC															Km (caspase-3 [14]): 9.7 µM
